These results are taken from article PMC8087116 (European journal of pharmaceutical sciences : official …, 2017).

One data set has as its system MOLT-4. The data set can be described thus: NCI-60 screening, leukemia MOLT-4. It is filed as cell-based, human.
For the next data set, the system named is HOP-92. The data set can be described thus: NCI-60 screening, NSCL HOP-92. It is filed as cell-based, human.
Another data set relates to PC-3. The data set can be described thus: NCI-60 screening, prostate PC-3. In kind it is cell-based, human.
The subject of data set [1] is NCI-60 human tumor cell lines. The conditions noted are these: for Inhibition against one or more cell lines: single dose 10 μM.
For a further data set, the system named is HOP-62. The data set can be described thus: NCI-60 screening, NSCL HOP-62. It is filed as cell-based, human.
The next data set concerns NCI-H23. The data set can be described thus: NCI-60 screening, NSCL NCI-H23. It is filed as cell-based, human.
Another data set has as its system CCRF-CEM. The data set can be described thus: NCI-60 screening, leukemia CCRF-CEM. It is filed as cell-based, human.
The subject of another data set is RPMI-8226. The data set can be described thus: NCI-60 screening, leukemia RPMI-8226. In kind it is cell-based, human.
The subject of a further data set is MDA-MB-468. The data set can be described thus: NCI-60 screening, breast MDA-MB-468. It is filed as cell-based, human.
For another data set, the system named is HL-60-TB. The data set can be described thus: NCI-60 screening, leukemia HL-60-TB. In kind it is cell-based, human.
The next data set has as its system COLO-205. The data set can be described thus: NCI-60 dose-response, colon COLO-205. As to conditions: COLO-205 colon cancer cell line, five-concentration dose-response. It is filed as cell-based, human.
The subject of another data set is SW-620. The data set can be described thus: NCI-60 dose-response, colon SW-620. The conditions noted are these: SW-620 colon cancer cell line, five-concentration dose-response. In kind it is cell-based, human.
The next data set relates to SR cell line. The data set can be described thus: NCI-60 dose-response, leukemia SR. It is filed as cell-based, human. As to conditions: five-concentration dose-response.
A further data set relates to MDA-MB-231/ATCC. The data set can be described thus: NCI-60 dose-response, breast MDA-MB-231/ATCC. In kind it is cell-based, human. As to conditions: MDA-MB-231/ATCC breast cancer cell line, five-concentration dose-response.
The next data set has as its system LOX IMVI. The data set can be described thus: NCI-60 dose-response, melanoma LOX IMVI. In kind it is cell-based, human. The conditions noted are these: LOX IMVI melanoma cell line, five-concentration dose-response.
For another data set, the system named is MALME-3 M. The data set can be described thus: NCI-60 dose-response, melanoma MALME-3 M. It is filed as cell-based, human. The conditions noted are these: MALME-3 M melanoma cell line, five-concentration dose-response.
A further data set deals with M14. The data set can be described thus: NCI-60 dose-response, melanoma M14. The conditions noted are these: M14 melanoma cell line, five-concentration dose-response. In kind it is cell-based, human.
For the next data set, the system named is SK-MEL-5. The data set can be described thus: NCI-60 dose-response, melanoma SK-MEL-5. In kind it is cell-based, human. As to conditions: SK-MEL-5 melanoma cell line, five-concentration dose-response.

In the case of `COC(=O)[C@@H](CC(C)C)NS(=O)(=O)N(c1cccc(F)c1)C1CCN(Cc2ccc(C(F)(F)F)cc2)CC1` [Compound 25], the “Inhibition of sensitive tumor cell lines at 10 μM conc.” value (shortened to “Inhibition … at 10 μM conc.”) with MOLT-4 came to 56%; with HOP-92, 60%; with PC-3 it was 50%. Moreover, the “Inhibition against one or more cell lines” value in data set [1] was more than 50%.

With `CC(C)[C@@H](NS(=O)(=O)N(c1cccc(F)c1)C1CCN(Cc2ccc(O)cc2)CC1)C(=O)O` [Compound 19], the “Inhibition … at 10 μM conc.” value in the data set with HOP-62 is reported as 88%; in the data set on NCI-H23, 58%. For the same compound, the “Inhibition against one or more cell lines” value in data set [1] was more than 50%.

Take `O=S(=O)(c1ccc(Br)cc1)N(c1cccc(F)c1)C1CCN(Cc2ccc(F)cc2)CC1` [Compound 49]: the “Inhibition … at 10 μM conc.” value was 51% with CCRF-CEM (10 μM, Leukemia CCRF-CEM); 65% with RPMI-8226; 53% in the data set with MDA-MB-468 (10 μM, Breast MDA-MB-468). Moreover, the “Inhibition against one or more cell lines” value in data set [1] was more than 50%.

As to `COC(=O)[C@H](NS(=O)(=O)N(c1ccc(F)cc1)C1CCN(Cc2ccc(F)cc2)CC1)C(C)C` [Compound 37], in the data set on HL-60-TB, the “Inhibition … at 10 μM conc.” value was “Leukemia: HL-60-TB (60%)”. Further, the “Inhibition against one or more cell lines” value in [1] is listed as more than 50%.

On to `COC(=O)[C@@H](C)CNS(=O)(=O)N(c1cc(C(F)(F)F)cc(C(F)(F)F)c1)C1CCN(Cc2ccc(F)cc2)CC1` [Compound 26], for which the GI50 (commonly the concentration that inhibits growth by half) in the data set with CCRF-CEM (CCRF-CEM leukemia cell line, five-concentration dose-response) is 12.8 µM; in the data set on MDA-MB-468 (MDA-MB-468 breast cancer cell line, five-concentration dose-response), 3.25 µM; with COLO-205 it was 1.88 µM; in the data set with SW-620 it was 11.1 µM; in the data set with SR cell line it was 3.18 µM; with MDA-MB-231/ATCC, 12.7 µM. The GI50 is 8.1 µM in the data set with LOX IMVI; 6.89 µM with MALME-3 M; 3.75 µM with M14; 3.19 µM in the data set with SK-MEL-5; not above 21 µM in data set [1] (all remaining subpanel cell lines of NCI-60). In [1], the “Cytotoxicity as indicated by LC50 values, words” value was “not cytotoxic for most of the cell lines”. Besides, the “TGI (total growth inhibition, cytostatic activity), words” value in data set [1] (dose-response, NCI-60 panel) is “total growth inhibition of most of the cell lines at moderate concentrations”.

Regarding `COC(=O)[C@H](NS(=O)(=O)N(c1cccc(F)c1)C1CCN(Cc2ccc(F)cc2)CC1)C(C)C` [Compound 18], in the data set with HL-60-TB, the “Inhibition … at 10 μM conc.” value is given as “Leukemia: HL-60-TB (56%)”. Besides, in data set [1], the “Inhibition against one or more cell lines” value is listed as more than 50%.

Turning to `COC(=O)[C@@H](OC(=O)NS(=O)(=O)N(c1ccc(F)cc1)C1CCN(Cc2ccc(F)cc2)CC1)C(C)C` [Compound 39], the “Inhibition against one or more cell lines” value in data set [1] was more than 50%.

In the case of `COC(=O)[C@@H](NS(=O)(=O)N(c1ccc(F)cc1)C1CCN(C(=O)c2ccc(F)cc2)CC1)C(C)C` [Compound 36], the “Inhibition … at 10 μM conc.” value with HL-60-TB is recorded as “Leukemia: HL-60-TB (57%)”. Further, the “Inhibition against one or more cell lines” value in data set [1] is given as more than 50%.
